Measured values as given in patent US20240116990A1, “Compositions and Methods of Treatment Using CRRL 191” (Mayo Foundation for Medical Education and Research, priority 2022, published 2024).
Bridge positions count the residues as written; N and C are the ends.

Target: recombinant human neprilysin (NEP) (Homo sapiens, UniProt P08473)
Test: In vitro neprilysin degradation assay (residual cGMP generation in HEK/GCA cells)
Details: for original bioactivity retained: 37° C.
Method: Briefly, 5 μl of 2×10^−5 M peptide is incubated with 5 μl (10 ng/μl) recombinant NEP in 90 μl Tris/0.1% BSA buffer (50 mM Tris-HCl, pH 7.5, 150 mM NaCl, 5 mM MgCl2, 0.1% BSA) at 37° C. for various lengths of time ranging from 15 min to 24 hours. Peptides for the 0-min timepoint are incubated without NEP (buffer only). After incubation for the required length of time (0-min to 24-hour), 100 μl of 0.5 N perchloric acid is added to the reaction solution to inactivate NEP and stop degradation, and 20 μl of 2.5 N NaOH is added to neutralize the solution. The neutralized reaction aliquot is added to HEK/GCA cells and the residual capability of the undegraded peptide (diluted to a final concentration 5.5×10^−8 M) to produce cGMP is measured using the same commercial cGMP ELISA kit (Enzo Life Sciences, Farmingdale, NY) as described in Example 2, following the instructions of the manufacturer.

Sequence of recombinant human neprilysin (NEP) (P08473 whole entry): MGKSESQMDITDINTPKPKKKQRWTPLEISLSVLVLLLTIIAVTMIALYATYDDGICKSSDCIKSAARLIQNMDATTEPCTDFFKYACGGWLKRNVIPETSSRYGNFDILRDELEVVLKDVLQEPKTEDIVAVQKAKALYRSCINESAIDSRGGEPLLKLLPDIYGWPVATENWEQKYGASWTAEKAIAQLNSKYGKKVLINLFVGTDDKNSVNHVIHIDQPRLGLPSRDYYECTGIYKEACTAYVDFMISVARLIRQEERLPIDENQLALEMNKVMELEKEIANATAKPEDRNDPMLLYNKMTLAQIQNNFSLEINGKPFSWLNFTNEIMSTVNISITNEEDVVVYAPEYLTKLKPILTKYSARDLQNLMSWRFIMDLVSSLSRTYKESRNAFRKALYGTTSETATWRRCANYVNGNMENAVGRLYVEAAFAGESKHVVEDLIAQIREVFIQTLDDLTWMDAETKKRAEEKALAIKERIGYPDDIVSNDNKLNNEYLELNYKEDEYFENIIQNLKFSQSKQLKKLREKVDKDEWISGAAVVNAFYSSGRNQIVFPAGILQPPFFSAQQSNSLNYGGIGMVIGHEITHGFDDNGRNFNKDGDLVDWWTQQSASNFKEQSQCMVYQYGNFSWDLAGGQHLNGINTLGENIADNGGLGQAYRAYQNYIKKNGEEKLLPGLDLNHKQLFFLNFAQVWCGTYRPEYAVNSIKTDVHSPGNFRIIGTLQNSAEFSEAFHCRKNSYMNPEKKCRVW

## H-RALLTAPRSLRRSSCFGHKIDRINHVSNLGCNSFRYRITAREDKQGWA-OH (disulfide 15-31) [CRRL 191]
FIG. 3
  resistance to degradation by neprilysin compared to ANP: highly resistant
After 30 minutes of neprilysin degradation
  original bioactivity retained: about 90%
After 6 hours of neprilysin degradation
  original bioactivity retained: 84%
